# What was measured:
# [1] = Photostability test (UV-A 356 nm, 1H NMR); assay type: physicochemical; design: key: 4 = No qualitative change in ^1H NMR spectrum; 3 = Minute noise but no qualitative change in ^1H NMR spectrum; 2 = Clear noise and some qualitative change in ^1H NMR spectrum; 1 = Qualitative confirmation is difficult in ^1H NMR spectrum; settings: room temperature
# Procedure: In order to examine photostability of the compound of formula (1) compared with retinol, 10 mg of sample was irradiated by UV-A light (wavelength 356 nm) using a Spectroline (Model CM-10; Fluorescence analysis cabinet; Spectronics Corporation, Westbury, N.Y., USA) at certain intervals of time at room temperature.
# [2] = test system: RXR α, β, γ; test: Activity for RXR (CAT reporter in HaCaT cells); assay type: cell-based; settings: 1 μM, CAT ELISA, Control = 1.0
# Procedure: (§1) The effect of the retinol derivatives on the activity of RAR and RXR was examined as follows.
# (§2) Experimental procedure: Recombinant gene of DR5-tk-CAT or DR1-tk-CAT comprising DR1 or DR5 as a response element of RAR/RXR, […] promoter, and CAT (chloramphenicol acetyl transferase) was suitably combined with a plasmid DNA that expresses RAR α, β, γ and cotransfected to HaCaT cell line, a skin cancer cell line, with Lipofectamin (GibcoBRL). Then, the cells were incubated in DMEM/10% FBS medium for 1 day, retinol derivative was added in a concentration of 1 μM, and the cells were incubated again for 1 day under the condition of 5% CO2 and 37° C. The cells were washed with phosphate-buffered salione (PBS). Proteins were extracted from each cell, the activity of β-galactosidase was assayed, and the amount of protein was measured to determine the transfection efficiency. Further, the degree of transcription for RAR or RXR was analyzed by CAT ELISA (Roche Molecular Biochemicals, Mannheim, Germany).
# [3] = biological target: T1, RAR α (Homo sapiens, UniProt P10276); test: Activity for RAR α (CAT reporter in HaCaT cells); assay type: cell-based; settings: 1 μM, CAT ELISA
# T1 construct: expressed in transfected cells; host or cells: HaCaT
# T1 sequence (P10276 1-462): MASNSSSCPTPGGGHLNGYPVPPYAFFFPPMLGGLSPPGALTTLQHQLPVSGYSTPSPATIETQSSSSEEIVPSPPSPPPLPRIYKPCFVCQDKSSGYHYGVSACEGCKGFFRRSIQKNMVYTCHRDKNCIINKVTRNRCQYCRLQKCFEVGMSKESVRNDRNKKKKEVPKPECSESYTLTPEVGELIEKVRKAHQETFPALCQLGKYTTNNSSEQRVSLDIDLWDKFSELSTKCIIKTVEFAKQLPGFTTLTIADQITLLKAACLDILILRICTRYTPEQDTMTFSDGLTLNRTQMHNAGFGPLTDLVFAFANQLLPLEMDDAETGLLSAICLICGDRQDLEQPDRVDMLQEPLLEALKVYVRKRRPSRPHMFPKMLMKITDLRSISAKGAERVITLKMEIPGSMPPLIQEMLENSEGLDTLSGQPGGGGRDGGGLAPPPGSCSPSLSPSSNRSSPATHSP
# Procedure: as §1, §2
# [4] = test system: AP-1 (comprising c-Jun protein); test: Inhibition of activity of AP-1 protein (Coll-CAT collagenase promoter reporter in HaCaT cells); assay type: cell-based; settings: for Relative inhibition against the expression of collagenase / effect on / inhibitory activity against c-Jun (AP-1), in words: HaCaT, Coll-CAT; for effect on / inhibitory activity against c-Jun (AP-1), in words: c-Jun / RAR α cotransfection
# Procedure: AP-1 (comprising c-Jun protein) is a transcription factor inducing the expression of collagenase that is a major cause of skin wrinkles. […] Therefore, studies thereabout were carried out in a similar manner to Experiment 6 as follows.
# Experimental procedure: CAT reporter (Coll-CAT) having the collagenase promoter wherein AP-1 response element (TRE) is contained, was transfected into HaCaT cell line, a skin cancer cell line, using a liposome. Then, the degree of inhibition against the activity of AP-1 by retinol derivatives was measured through CAT ELISA in a similar manner to Experiment 6. Further, the effect of retinol derivatives on the transcriptional activity of c-Jun (a protein that induces transfer of cancer, skin aging and inflammation, and consists of homologous isomers or heterologous isomers), a constitutional element of AP-1, was examined by cotransfecting c-Jun or RAR α expression vector.
# [5] = biological target: T2, RAR β (Homo sapiens, UniProt P10826); test: Activity for RAR β (CAT reporter in HaCaT cells); assay type: cell-based; settings: 1 μM, CAT ELISA
# T2 construct: expressed in transfected cells; host or cells: HaCaT
# T2 sequence (P10826 1-455): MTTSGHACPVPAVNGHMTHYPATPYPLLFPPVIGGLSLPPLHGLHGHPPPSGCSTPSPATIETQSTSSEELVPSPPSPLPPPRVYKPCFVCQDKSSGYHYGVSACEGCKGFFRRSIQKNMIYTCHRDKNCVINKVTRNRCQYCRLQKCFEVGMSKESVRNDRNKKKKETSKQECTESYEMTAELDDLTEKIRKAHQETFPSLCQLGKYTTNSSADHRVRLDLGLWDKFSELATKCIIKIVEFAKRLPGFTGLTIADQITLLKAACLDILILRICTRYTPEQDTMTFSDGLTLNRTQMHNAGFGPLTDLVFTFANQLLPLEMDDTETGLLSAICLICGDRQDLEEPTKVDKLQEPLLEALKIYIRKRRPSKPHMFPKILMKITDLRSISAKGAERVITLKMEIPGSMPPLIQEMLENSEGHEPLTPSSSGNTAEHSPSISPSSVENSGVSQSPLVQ
# Procedure: as §1, §2
# [6] = biological target: T3, RAR γ (Homo sapiens, UniProt P13631); test: Activity for RAR γ (CAT reporter in HaCaT cells); assay type: cell-based; settings: 1 μM, CAT ELISA
# T3 construct: expressed in transfected cells; host or cells: HaCaT
# T3 sequence (P13631 1-454): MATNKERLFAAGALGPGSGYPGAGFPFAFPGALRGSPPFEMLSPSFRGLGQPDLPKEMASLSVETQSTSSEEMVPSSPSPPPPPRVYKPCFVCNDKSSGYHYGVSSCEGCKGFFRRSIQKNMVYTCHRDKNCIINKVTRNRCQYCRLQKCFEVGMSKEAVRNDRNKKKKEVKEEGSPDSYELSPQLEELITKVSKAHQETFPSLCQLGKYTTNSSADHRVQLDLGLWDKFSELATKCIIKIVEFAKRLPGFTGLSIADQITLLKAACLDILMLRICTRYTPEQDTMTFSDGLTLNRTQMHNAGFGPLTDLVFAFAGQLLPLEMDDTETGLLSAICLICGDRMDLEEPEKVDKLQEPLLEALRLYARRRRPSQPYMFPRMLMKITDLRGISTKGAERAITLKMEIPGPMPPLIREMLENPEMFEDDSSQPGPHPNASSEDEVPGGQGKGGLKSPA
# Procedure: as §1, §2
# [7] = test system: skin of normal adults; test: Test for skin irritation property (closed patch test); assay type: in vivo, human; settings: closed patch test 24 hours, 20 adults
# Procedure: In order to examine the skin irritation of the compound of formula (1), a patch test for the skin of normal adults was carried out. As the carrier, capryl caprylic triglyceride or the conventional O/W formulation was used, and twenty (20) adults per a group were tested for 24 hours.
# The conventional O/W formulation used in the present experiment was prepared according to the following procedure.
# Each of the aqueous part of Nos. 1–6 and the oily part of Nos. 7–13 as shown in the following Table 1 was heated to 75–80° C. to be thoroughly dissolved. The oily part was slowly added to the aqueous part and emulsification was performed for 5 minutes at 75–80° C. in a homomixer of 3000rpm. During the emulsification, the mixture was neutralized by the neutralizing agent of No. 14. After the first emulsification, the mixture was cooled, the retinal retaliate and fragrance of Nos. 15–16 were added at 50–55° C., and then the second emulsification was carried out for 3 minutes in a homomixer of 3000rpm. The mixture was cooled again to 27–30° C. to prepare the composition of O/W formulation.
# From the experimental results, the irritation indexes were calculated according to the following Equation 1 and the results are represented in the following Table 2. Irritation index={Σ(Test Value×Number of Examinees Corresponding to the Test Value)/(Total Examinees×The Maximum Test Value)×100 Equation 1
# Test Value +++: 5, ++: 4, +: 3, +−: 2, −:1
# The degree of irritation was determined according to the following standards:
# 1.9 or less: Minute irritation, 2.0–2.9: Weak irritation, 3.0–3.9: Moderate irritation, 4.0 or more: Strong irritation
# [8] = test system: Normal human fibroblast (Newborn, passage: 6); test: Collagen synthesis test (Sircol collagen assay); assay type: cell-based; settings: 0.000001%, 0.00001%(w/v); human fibroblast
# Procedure: The effect for collagen synthesis of the compound of formula (1) was examined by using retinol, retinoic acid, and derivatives thereof as comparison compounds to confirm its utility as inhibitors for skin aging as follows. The results are represented in FIG. 2.
# Cell: Normal human fibroblast (Newborn, passage: 6)
# Medium: DMEM containing 10% FBS→DMEM free of FBS was used when cells were treated with samples.
# Concentration: A range of concentration where the samples exert no toxicity to the cells was selected through a cell toxicity test ? 0.000001%, 0.00001%(w/v)
# Procedure: 1×10^5 cells/well were inoculated into a 6-well plate. Cells were cultured to show about 79–80% confluent. Cells were treated with test samples and incubated for 2 days (FBS was not added to the medium when cells were treated with samples). After 2 days, cell medium and cells were separated from each other and respectively stored in a refrigerator. The cell extract was subjected to the protein analysis (BCA Protein Assay Kit, PIERCE 23225) and the medium was subjected to collagen analysis.
# After the medium was removed, a small amount of PBS was added. Cells were scraped with a scraper. 1N NaOH (100 μl) and distilled water (400 μl) were added and the resulting mixture was allowed to stand overnight. Then, the protein analysis was carried out.
# Collagen analysis: Analysis kit (Sircol Collagen assay kit—a dye that specifically combines with soluble collagen is used)
# 1.0 ml of Sircol Dye Reagent was introduced into each tube and mixed for 30 minutes. The mixture was centrifuged for 10 minutes at 5,000 g or more and the supernatant was removed. 1.0 ml Sircol Alkali Reagent was added, slowly mixed, and absorbance at 540 nm was measured. The amount of protein was converted into the value of collagen analysis (see: Mechanism of Aging and Development 73, 179–187, 1994).
# After the above experiment, the increasing ratio for collagen synthesis of the test group over the control group treated only by DMEM was depicted in FIG. 2.
# [9] = Condition of expression: c-Jun + RAR α, untreated = 8.6
# [10] = Condition of expression: c-Jun, untreated = 8.6
# [11] = Condition of expression: — (no c-Jun or RAR α vector), untreated = 1.0
# [12] = Control = 1.0, listed as retinal acetyl salicylate
# [13] = Control = 1.0, listed as retinal salicylate
SMILES,"Relative activity against RXR α, β, γ [2]",Relative activity against RAR α ([3]; Control = 1.0),"Relative inhibition against the expression of collagenase [4, 9]","Relative inhibition against the expression of collagenase [4, 10]","Relative inhibition against the expression of collagenase [4, 11]",Relative activity against RAR β ([5]; Control = 1.0),Relative activity against RAR γ ([6]; Control = 1.0),"effect on / inhibitory activity against c-Jun (AP-1), in words [4]",other results
CC1=C(/C=C/C(C)=C/C=C/C(C)=C/C(=O)OC(=O)/C=C(C)/C=C/C=C(C)/C=C/C2=C(C)CCCC2(C)C)C(C)(C)CCC1,,,,,,,,,"Photostability level ([1]; After 0 hour, 10 mg sample): 4; Photostability level ([1]; After 2 hours): 3; Photostability level ([1]; After 12 hours): 2; Photostability level ([1]; After 24 hours): 2; Photostability level ([1]; After 48 hours): 2"
CC1=C(/C=C/C(C)=C/C=C/C(C)=C/C(=O)O)C(C)(C)CCC1 [Retinoic acid],9.5,37.0,3.1,5.4,0.6,4.0,3.0,,inhibition of the expression of collagenase ([4]; cells treated together with RAR α (c-Jun expressed)): about 64%
CCCCCCCCCCCCCCCC(=O)OC/C=C(C)/C=C/C=C(C)/C=C/C1=C(C)CCCC1(C)C [Retinyl Palmitate],,,,,,,,,"Degree of Irritation ([7]; 0.138% in C.C.T): Moderate irritation (3.0–3.9: Moderate irritation); Irritation Index ([7]; 0.138% in C.C.T): 3.8; Degree of Irritation ([7]; 0.55% in C.C.T): Strong irritation (4.0 or more: Strong irritation); Irritation Index ([7]; 0.55% in C.C.T): 4.5; effect for collagen synthesis (FIG. 2), comparison in words [8]: much lower effect for collagen synthesis than retinol"
CC(=O)Oc1ccccc1C(=O)OC/C=C(C)/C=C/C=C(C)/C=C/C1=C(C)CCCC1(C)C [Retinyl acetyl salicylate],1.1,2.5,8.7,8.5,1.0,1.0,1.0,no effect,"Relative activity against RAR α [3, 12]: low activity; Relative activity against RAR β [5, 12]: no activity; Relative activity against RAR γ [6, 12]: no activity"
CC1=C(/C=C/C(C)=C/C=C/C(C)=C/COC(=O)c2ccccc2O)C(C)(C)CCC1 [Retinyl salicylate],1.0,3.2,8.8,8.7,1.0,1.1,1.0,no effect,"Relative activity against RAR α [3, 13]: low activity; Relative activity against RAR β [5, 13]: no activity; Relative activity against RAR γ [6, 13]: no activity"

# From patent US7173062B2, “Method for the improvement of skin wrinkles using retinyl retinoate” (Enprani Co., Ltd., priority 2001, dated 2007)
